These results are taken from ChEMBL document CHEMBL1201862, “PubChem BioAssay data set” (2004).

Among the test systems are SW-620; MOLT-4; SF-539; UO-31; HOP-92; UACC-62; OVCAR-4; IGROV-1; SF-295; HCC 2998; A549; OVCAR-3; SK-OV-3; SNB-19; NCI-H460; HCT-116; OVCAR-5; UACC-257; OVCAR-8; HCT-15.
Assay in all cases: growth of human tumour cells (NCI), 48 h

Where a name gives a salt, the structure may show the parent alone.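 The compound was tested at five concentrations on cells cultured in 96-well plates, with a 48-hour exposure period. The concentration for 50% growth inhibition is given as GI50.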 Active and inactive are the calls of the source. Rule as the data show it: active = GI50 up to about 1.1 µM and inactive = higher.

With `COc1cc2c(cc1OC)C1Cc3cc(OC)c(OC)cc3C(C2)O1`, the GI50 in the assay on SW-620 is > 100 µM (inactive); in the assay with MOLT-4 it was 49.1 µM (inactive); in the assay on SF-539, > 100 µM (inactive); in the assay on UO-31, 83.8 µM (inactive); in the assay with HOP-92, > 100 µM (inactive); with UACC-62, > 100 µM (inactive). In addition, the GI50 is > 100 µM (inactive) in the assay with OVCAR-4; 49.8 µM (inactive) with IGROV-1; 95.7 µM (inactive) in the assay with SF-295; > 100 µM (inactive) with HCC 2998; > 100 µM (inactive) in the assay with A549; > 100 µM (inactive) in the assay on OVCAR-3. The GI50 with SK-OV-3, with SNB-19, with NCI-H460, with HCT-116, with OVCAR-5 and with UACC-257 was > 100 µM (inactive) each time. Further, the GI50 with OVCAR-8 was > 100 µM (inactive).
On to `Cc1cc(C)c(NC(=O)/C=C/c2ccccc2)c(C)c1`, for which the GI50 in the assay on SW-620 is > 100 µM (inactive); in the assay on MOLT-4, 7.64 µM (inactive); with SF-539 it was 59 µM (inactive); in the assay on UO-31, > 100 µM (inactive); in the assay on HOP-92, 56.6 µM (inactive); with UACC-62, 22.9 µM (inactive). Also, the GI50 is 94.6 µM (inactive) in the assay on OVCAR-4; > 100 µM (inactive) in the assay on IGROV-1; 87.1 µM (inactive) in the assay on SF-295; > 100 µM (inactive) with HCC 2998; > 100 µM (inactive) in the assay on A549; > 100 µM (inactive) in the assay on OVCAR-3. The GI50 in the assay on SK-OV-3 was > 100 µM (inactive); in the assay with SNB-19, 61.9 µM (inactive); in the assay on NCI-H460 it was > 100 µM (inactive); in the assay with OVCAR-5, > 100 µM (inactive); in the assay on UACC-257, > 100 µM (inactive); in the assay on HCT-15 it was 78 µM. In addition, the GI50 in the assay on OVCAR-8 was > 100 µM (inactive).
In the case of `N#CCCN(c1ccc(/C=N/c2cccc([N+](=O)[O-])c2)cc1)S(=O)(=O)c1ccccc1`, the GI50 with SW-620 was > 100 µM (inactive); with MOLT-4, > 100 µM (inactive); in the assay with SF-539 it was > 100 µM (inactive); in the assay on UO-31 it was 36.3 µM (inactive); in the assay on HOP-92, > 100 µM (inactive); with UACC-62, > 100 µM (inactive). The GI50 in the assay with OVCAR-4, with IGROV-1, in the assay on SF-295, in the assay with HCC 2998, in the assay on A549 and in the assay with OVCAR-3 was > 100 µM (inactive) throughout. Moreover, the GI50 with SK-OV-3, in the assay with SNB-19, in the assay with HCT-116, in the assay on UACC-257 and in the assay on OVCAR-8 was > 100 µM (inactive) each time.
Consider `O=C(N[C@H]1c2ccsc2/C(=N/O)[C@H]1O)C(F)(F)F`, for which the GI50 with SW-620, in the assay on MOLT-4, in the assay with SF-539, with UO-31, in the assay on HOP-92 and in the assay with UACC-62 was > 100 µM (inactive) each time. For the same compound, the GI50 in the assay on IGROV-1, in the assay with SF-295, in the assay with HCC 2998, in the assay on A549, with OVCAR-3 and with SK-OV-3 was > 100 µM (inactive) in each case. The GI50 with SNB-19 was > 100 µM (inactive); in the assay with NCI-H460 it was > 100 µM (inactive); with HCT-116, > 100 µM (inactive); in the assay on OVCAR-5, > 100 µM (inactive); with UACC-257, > 100 µM (inactive); in the assay on HCT-15 it was > 100 µM. The GI50 with OVCAR-8 is > 100 µM (inactive).
Take `CSCSCC(CO)NC(=O)/C(C)=C\c1c(C)[nH]c(=O)[nH]c1=O` (configuration not stated): the GI50 in the assay with SW-620 was 237 µM (inactive); in the assay with MOLT-4, > 250 µM (inactive); in the assay on SF-539 it was > 250 µM (inactive); in the assay with UO-31, > 250 µM (inactive); with HOP-92 it was 20.3 µM (inactive); in the assay with UACC-62 it was > 250 µM (inactive). Also, the GI50 in the assay on OVCAR-4, in the assay on IGROV-1, in the assay on SF-295, in the assay with HCC 2998, in the assay with A549 and with OVCAR-3 was > 250 µM (inactive) each time. The GI50 with SK-OV-3 is > 250 µM (inactive); in the assay on SNB-19, 48.3 µM (inactive); with NCI-H460, > 250 µM (inactive); with HCT-116 it was > 250 µM (inactive); with OVCAR-5, 207 µM (inactive); with UACC-257, 170 µM (inactive). The GI50 is 225 µM with HCT-15 and > 250 µM (inactive) in the assay with OVCAR-8.
For `CN1CCc2[nH]c3ccccc3c2C1`, the GI50 in the assay on SW-620, in the assay with MOLT-4, in the assay with SF-539, with UO-31, in the assay with HOP-92 and in the assay with UACC-62 was > 100 µM (inactive) in each case. For the same compound, the GI50 in the assay with OVCAR-4, in the assay on IGROV-1, with SF-295, with HCC 2998, in the assay on A549 and in the assay with OVCAR-3 was > 100 µM (inactive) each time. Further, the GI50 in the assay on SK-OV-3, in the assay with SNB-19, with NCI-H460, in the assay with HCT-116, with OVCAR-5 and with UACC-257 was > 100 µM (inactive) each time. Besides, the GI50 in the assay with HCT-15 was > 100 µM; in the assay with OVCAR-8 it was > 100 µM (inactive).
On to `CCCc1c(-c2ccccc2)[nH]c2ccccc2c1=O`, for which the GI50 in the assay with SW-620 was > 100 µM (inactive); with MOLT-4, > 100 µM (inactive); in the assay with SF-539 it was 33.8 µM (inactive); in the assay with UO-31 it was 19.2 µM (inactive); in the assay on HOP-92, > 100 µM (inactive); in the assay on UACC-62, 40.5 µM (inactive). The GI50 in the assay on OVCAR-4 is > 100 µM (inactive); in the assay on IGROV-1, > 100 µM (inactive); with SF-295, > 100 µM (inactive); in the assay on HCC 2998 it was 25.2 µM (inactive); in the assay with OVCAR-3, 31.5 µM (inactive); with SK-OV-3 it was 42.3 µM (inactive). Besides, the GI50 is 65.2 µM (inactive) in the assay on SNB-19; 29.9 µM (inactive) with NCI-H460; 24.3 µM (inactive) in the assay with HCT-116; 45 µM (inactive) in the assay on OVCAR-5; > 100 µM (inactive) in the assay with UACC-257; 27.4 µM in the assay with HCT-15.
For the compound `CCCCn1cc[n+](-c2nc3ccccc3n2C)c1`, the GI50 in the assay with SW-620, in the assay with MOLT-4, in the assay on SF-539, with UO-31, in the assay with UACC-62 and with OVCAR-4 was > 100 µM (inactive) throughout. Also, the GI50 in the assay with IGROV-1, with SF-295, in the assay with HCC 2998, in the assay on A549, in the assay on OVCAR-3 and in the assay on SK-OV-3 was > 100 µM (inactive) in each case. Further, the GI50 is > 100 µM (inactive) with SNB-19; > 100 µM (inactive) in the assay on NCI-H460; > 100 µM (inactive) in the assay with HCT-116; > 100 µM (inactive) with OVCAR-5; > 100 µM (inactive) in the assay with UACC-257; > 100 µM in the assay on HCT-15. In the assay with OVCAR-8, the GI50 was > 100 µM (inactive).
Consider `c1ccc(Nc2nnc(-c3nsc4ccccc34)o2)cc1`, for which the GI50 is > 100 µM (inactive) in the assay on SW-620; > 100 µM (inactive) in the assay on MOLT-4; > 100 µM (inactive) with SF-539; > 100 µM (inactive) with UO-31; 19.2 µM (inactive) with HOP-92; > 100 µM (inactive) in the assay on UACC-62. Also, the GI50 in the assay on OVCAR-4 is 41 µM (inactive); in the assay with IGROV-1 it was > 100 µM (inactive); in the assay on HCC 2998, > 100 µM (inactive); with A549 it was > 100 µM (inactive); in the assay with OVCAR-3, 14 µM (inactive); in the assay with SNB-19 it was 37.8 µM (inactive). The GI50 in the assay with NCI-H460 is 62.1 µM (inactive); in the assay on HCT-116, 74.1 µM (inactive); in the assay on OVCAR-5, > 100 µM (inactive); with UACC-257, > 100 µM (inactive); with HCT-15 it was > 100 µM; in the assay on OVCAR-8, 48.4 µM (inactive).
As to `CNCCC=C1c2ccccc2CCc2ccccc21` [NORTRIPTYLINE HYDROCHLORIDE], the GI50 with SW-620 was 17.7 µM (inactive); in the assay on MOLT-4 it was 12.1 µM (inactive); in the assay on SF-539 it was 28.5 µM (inactive); with UO-31, 6.14 µM (inactive); in the assay with HOP-92, 13.7 µM (inactive); in the assay with UACC-62, 14.8 µM (inactive). Also, the GI50 in the assay with OVCAR-4 is 14 µM (inactive); in the assay on IGROV-1 it was 16.7 µM (inactive); with SF-295, 14.6 µM (inactive); in the assay on A549 it was 16.6 µM (inactive); with OVCAR-3, 11.4 µM (inactive); in the assay with SK-OV-3 it was 12.6 µM (inactive). In addition, the GI50 in the assay with SNB-19 was 16.6 µM (inactive); with NCI-H460, 14.8 µM (inactive); with HCT-116 it was 14.6 µM (inactive); in the assay on OVCAR-5, 15.3 µM (inactive); in the assay on UACC-257, 7.67 µM (inactive); in the assay with HCT-15 it was 17.1 µM. For the same compound, in the assay with OVCAR-8, the GI50 is 17 µM (inactive).
As for `COc1ccc(/C=C2/C(=O)N(C(=O)c3ccccc3O)N=C2C)cc1`, the GI50 with SW-620 is 1.44 µM (inactive); with MOLT-4, 0.244 µM (active); with SF-539 it was 0.109 µM (active); in the assay with UO-31, 0.0445 µM (active); with HOP-92, 0.0441 µM (active); in the assay on UACC-62 it was 0.0968 µM (active). Further, the GI50 was 0.655 µM (active) in the assay with OVCAR-4; 0.0234 µM (active) in the assay with IGROV-1; 0.0946 µM (active) in the assay with SF-295; 0.175 µM (active) with A549; 0.338 µM (active) with OVCAR-3; 0.0789 µM (active) in the assay on SK-OV-3. Besides, the GI50 in the assay with SNB-19 was 0.0484 µM (active); with NCI-H460 it was 0.262 µM (active); in the assay with HCT-116, 0.091 µM (active); with OVCAR-5, 11.2 µM (inactive); in the assay on UACC-257, 0.442 µM (active); in the assay with HCT-15, 0.263 µM. Besides, the GI50 in the assay with OVCAR-8 is 0.238 µM (active).
